PubChem BioAssay (NCI)
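Tested at 5 concentrations; 48 h exposure; 96-well plates; endpoints linearly interpolated, else capped at highest concentration. At the TGI there is no net growth.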

How the values were obtained:
Experiment in all cases: NCI anticancer screen, dose series, 48 h
K-562 leukemia = system: K-562 leukemia
T-47D breast = system: T-47D breast
SNB-19 CNS = system: SNB-19 CNS
IGROV1 ovarian = system: IGROV1 ovarian
NCI-H226 lung = system: NCI-H226 lung
A498 renal = system: A498 renal
PC-3 prostate = system: PC-3 prostate
DU-145 prostate = system: DU-145 prostate
ACHN renal = system: ACHN renal
NCI-H460 lung = system: NCI-H460 lung
NCI-H522 lung = system: NCI-H522 lung
BT-549 breast = system: BT-549 breast
SN12C renal = system: SN12C renal
HOP-62 NSCLC = system: HOP-62 NSCLC
MDA-MB-231 breast = system: MDA-MB-231 breast
UO-31 renal = system: UO-31 renal
MDA-N = system: MDA-N
RPMI-8226 leukemia = system: RPMI-8226 leukemia
TK-10 renal = system: TK-10 renal
MOLT-4 leukemia = system: MOLT-4 leukemia
NCI-H23 lung = system: NCI-H23 lung
A549 NSCLC = system: A549 NSCLC
UACC-62 melanoma = system: UACC-62 melanoma
HS 578T breast = system: HS 578T breast
MALME-3M melanoma = system: MALME-3M melanoma
HT29 colon = system: HT29 colon
HCT-116 colon = system: HCT-116 colon
SK-MEL-2 melanoma = system: SK-MEL-2 melanoma
SW-620 colon = system: SW-620 colon
786-0 renal = system: 786-0 renal
SF-295 CNS = system: SF-295 CNS
CCRF-CEM leukemia = system: CCRF-CEM leukemia
COLO 205 colon = system: COLO 205 colon
EKVX NSCLC = system: EKVX NSCLC
OVCAR-4 ovarian = system: OVCAR-4 ovarian
HCT-15 colon = system: HCT-15 colon
KM12 colon = system: KM12 colon
RXF 393 renal = system: RXF 393 renal
NCI/ADR-RES ovarian = system: NCI/ADR-RES ovarian
CAKI-1 renal = system: CAKI-1 renal
U251 CNS = system: U251 CNS
M14 melanoma = system: M14 melanoma
OVCAR-3 ovarian = system: OVCAR-3 ovarian
SK-MEL-28 melanoma = system: SK-MEL-28 melanoma
UACC-257 melanoma = system: UACC-257 melanoma
OVCAR-5 ovarian = system: OVCAR-5 ovarian
HL-60(TB) leukemia = system: HL-60(TB) leukemia
OVCAR-8 ovarian = system: OVCAR-8 ovarian
SF-268 CNS = system: SF-268 CNS
MDA-MB-435 = system: MDA-MB-435
MCF7 breast = system: MCF7 breast
LOX IMVI melanoma = system: LOX IMVI melanoma
SK-MEL-5 melanoma = system: SK-MEL-5 melanoma
SNB-75 CNS = system: SNB-75 CNS
HOP-92 NSCLC = system: HOP-92 NSCLC
HCC-2998 colon = system: HCC-2998 colon
SK-OV-3 ovarian = system: SK-OV-3 ovarian
SF-539 CNS = system: SF-539 CNS

## Cc1ccc2c(=O)c(C(=O)NNC(=S)NC3CCCCC3)c[nH]c2n1
K-562 leukemia
  TGI: > 100 µM
T-47D breast
  TGI: > 100 µM
SNB-19 CNS
  TGI: > 100 µM
IGROV1 ovarian
  TGI: > 100 µM
NCI-H226 lung
  TGI: > 100 µM
A498 renal
  TGI: > 100 µM
PC-3 prostate
  TGI: > 100 µM
DU-145 prostate
  TGI: > 100 µM
ACHN renal
  TGI: > 100 µM
NCI-H460 lung
  TGI: > 100 µM
NCI-H522 lung
  TGI: > 100 µM
BT-549 breast
  TGI: > 100 µM
SN12C renal
  TGI: > 100 µM
HOP-62 NSCLC
  TGI: > 100 µM
MDA-MB-231 breast
  TGI: > 100 µM
UO-31 renal
  TGI: > 100 µM
MDA-N
  TGI: > 100 µM
RPMI-8226 leukemia
  TGI: > 100 µM
TK-10 renal
  TGI: > 100 µM
MOLT-4 leukemia
  TGI: > 100 µM
NCI-H23 lung
  TGI: > 100 µM
A549 NSCLC
  TGI: > 100 µM
UACC-62 melanoma
  TGI: > 100 µM
HS 578T breast
  TGI: > 100 µM
MALME-3M melanoma
  TGI: > 100 µM
HT29 colon
  TGI: > 100 µM
HCT-116 colon
  TGI: > 100 µM
SK-MEL-2 melanoma
  TGI: > 100 µM
SW-620 colon
  TGI: > 100 µM
786-0 renal
  TGI: > 100 µM
SF-295 CNS
  TGI: > 100 µM
CCRF-CEM leukemia
  TGI: > 100 µM
COLO 205 colon
  TGI: > 100 µM
EKVX NSCLC
  TGI: > 100 µM
OVCAR-4 ovarian
  TGI: > 100 µM
HCT-15 colon
  TGI: > 100 µM
KM12 colon
  TGI: > 100 µM
RXF 393 renal
  TGI: > 100 µM
NCI/ADR-RES ovarian
  TGI: > 100 µM
CAKI-1 renal
  TGI: > 100 µM
U251 CNS
  TGI: > 100 µM
M14 melanoma
  TGI: > 100 µM
OVCAR-3 ovarian
  TGI: > 100 µM
SK-MEL-28 melanoma
  TGI: > 100 µM
UACC-257 melanoma
  TGI: > 100 µM
OVCAR-5 ovarian
  TGI: > 100 µM
HL-60(TB) leukemia
  TGI: > 100 µM
OVCAR-8 ovarian
  TGI: > 100 µM
SF-268 CNS
  TGI: > 100 µM
MDA-MB-435
  TGI: 89 µM
MCF7 breast
  TGI: > 100 µM
LOX IMVI melanoma
  TGI: > 100 µM
SK-MEL-5 melanoma
  TGI: > 100 µM

## CCCCSC1=N/C(=C\c2ccc(N(C)C)cc2)C(Cl)=N1
K-562 leukemia
  TGI: > 100 µM
T-47D breast
  TGI: > 100 µM
SNB-19 CNS
  TGI: > 100 µM
IGROV1 ovarian
  TGI: > 100 µM
NCI-H226 lung
  TGI: > 100 µM
A498 renal
  TGI: > 100 µM
PC-3 prostate
  TGI: > 100 µM
DU-145 prostate
  TGI: > 100 µM
SNB-75 CNS
  TGI: > 100 µM
ACHN renal
  TGI: > 100 µM
NCI-H460 lung
  TGI: > 100 µM
NCI-H522 lung
  TGI: > 100 µM
BT-549 breast
  TGI: > 100 µM
SN12C renal
  TGI: > 100 µM
HOP-62 NSCLC
  TGI: > 100 µM
MDA-MB-231 breast
  TGI: > 100 µM
UO-31 renal
  TGI: > 100 µM
MDA-N
  TGI: > 100 µM
HOP-92 NSCLC
  TGI: > 100 µM
RPMI-8226 leukemia
  TGI: > 100 µM
HCC-2998 colon
  TGI: > 100 µM
TK-10 renal
  TGI: > 100 µM
MOLT-4 leukemia
  TGI: > 100 µM
NCI-H23 lung
  TGI: > 100 µM
A549 NSCLC
  TGI: > 100 µM
UACC-62 melanoma
  TGI: > 100 µM
HS 578T breast
  TGI: > 100 µM
MALME-3M melanoma
  TGI: > 100 µM
HT29 colon
  TGI: > 100 µM
HCT-116 colon
  TGI: > 100 µM
SK-MEL-2 melanoma
  TGI: > 100 µM
SW-620 colon
  TGI: > 100 µM
786-0 renal
  TGI: > 100 µM
SF-295 CNS
  TGI: > 100 µM
COLO 205 colon
  TGI: > 100 µM
EKVX NSCLC
  TGI: > 100 µM
OVCAR-4 ovarian
  TGI: > 100 µM
HCT-15 colon
  TGI: > 100 µM
KM12 colon
  TGI: > 100 µM
RXF 393 renal
  TGI: > 100 µM
NCI/ADR-RES ovarian
  TGI: > 100 µM
CAKI-1 renal
  TGI: > 100 µM
U251 CNS
  TGI: > 100 µM
M14 melanoma
  TGI: > 100 µM
OVCAR-3 ovarian
  TGI: > 100 µM
SK-MEL-28 melanoma
  TGI: > 100 µM
UACC-257 melanoma
  TGI: > 100 µM
SK-OV-3 ovarian
  TGI: > 100 µM
OVCAR-5 ovarian
  TGI: > 100 µM
OVCAR-8 ovarian
  TGI: > 100 µM
SF-539 CNS
  TGI: > 100 µM
SF-268 CNS
  TGI: > 100 µM
MDA-MB-435
  TGI: > 100 µM
MCF7 breast
  TGI: > 100 µM
LOX IMVI melanoma
  TGI: > 100 µM
